Test results reported in the kinase profiling compilation of Christmann-Franck et al. (2016).

Experiments:
Assay in all cases: KINOMEscan competition binding
Conditions in all cases: compound 10.0 µM
MAPK14 (human) = MAPK14 (human) (UniProt Q16539)
DCLK2 (human) = DCLK2 (human) (UniProt Q8N568)
CAMK2A (human) = CAMK2A (human) (UniProt Q9UQM7)
PIM1 (human) = PIM1 (human) (UniProt P11309)
MKNK1 (human) = MKNK1 (human) (UniProt Q9BUB5)
RPS6KA4 KD1 (human) = RPS6KA4 KD1 (human) (UniProt O75676)
SNRK (human) = SNRK (human) (UniProt Q9NRH2)
[1] = system: FLT3 (human), P36888 [D835H]
NEK1 (human) = NEK1 (human) (UniProt Q96PY6)
STK35 (human) = STK35 (human) (UniProt Q8TDR2)
TRPM6 (human) = TRPM6 (human) (UniProt Q9BX84)
BRSK1 (human) = BRSK1 (human) (UniProt Q8TDC3)
MAP3K6 (human) = MAP3K6 (human) (UniProt O95382)
[2] = target: JAK1 JH1 catalytic (human) (UniProt P23458)
MAP2K1 (human) = MAP2K1 (human) (UniProt Q02750)
MAP3K10 (human) = MAP3K10 (human) (UniProt Q02779)
MAP3K2 (human) = MAP3K2 (human) (UniProt Q9Y2U5)
MYLK2 (human) = MYLK2 (human) (UniProt Q9H1R3)
MAP3K3 (human) = MAP3K3 (human) (UniProt Q99759)
MAPK12 (human) = MAPK12 (human) (UniProt P53778)
FYN (human) = FYN (human) (UniProt P06241)
PLK4 (human) = PLK4 (human) (UniProt O00444)
GRK4 (human) = GRK4 (human) (UniProt P32298)
FER (human) = FER (human) (UniProt P16591)
CDK5 (human) = CDK5 (human) (UniProt Q00535)
NUAK1 (human) = NUAK1 (human) (UniProt O60285)
PRKCE (human) = PRKCE (human) (UniProt Q02156)
STK11 (human) = STK11 (human) (UniProt Q15831)
DAPK2 (human) = DAPK2 (human) (UniProt Q9UIK4)
PIK3CD (human) = PIK3CD (human) (UniProt O00329)
PAK2 (human) = PAK2 (human) (UniProt Q13177)
PAK2 (human), sequence (Q13177 whole entry, looked up): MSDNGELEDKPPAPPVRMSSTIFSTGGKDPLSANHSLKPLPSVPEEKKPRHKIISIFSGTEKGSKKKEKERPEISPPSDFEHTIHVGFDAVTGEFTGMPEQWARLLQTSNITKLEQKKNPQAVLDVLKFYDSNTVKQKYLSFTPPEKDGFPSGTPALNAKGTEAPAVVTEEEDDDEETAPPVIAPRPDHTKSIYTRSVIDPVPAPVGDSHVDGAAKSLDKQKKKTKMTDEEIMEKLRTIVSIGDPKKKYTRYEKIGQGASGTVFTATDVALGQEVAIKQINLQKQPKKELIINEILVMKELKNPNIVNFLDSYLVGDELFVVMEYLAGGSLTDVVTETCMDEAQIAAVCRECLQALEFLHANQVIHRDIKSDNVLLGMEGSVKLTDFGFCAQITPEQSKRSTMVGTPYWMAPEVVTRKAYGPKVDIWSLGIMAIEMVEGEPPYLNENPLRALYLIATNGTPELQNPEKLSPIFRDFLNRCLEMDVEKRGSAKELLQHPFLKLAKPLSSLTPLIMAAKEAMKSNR

MAP4K5 (human) = MAP4K5 (human) (UniProt Q9Y4K4)
MAP4K5 (human), sequence (Q9Y4K4 whole entry, looked up): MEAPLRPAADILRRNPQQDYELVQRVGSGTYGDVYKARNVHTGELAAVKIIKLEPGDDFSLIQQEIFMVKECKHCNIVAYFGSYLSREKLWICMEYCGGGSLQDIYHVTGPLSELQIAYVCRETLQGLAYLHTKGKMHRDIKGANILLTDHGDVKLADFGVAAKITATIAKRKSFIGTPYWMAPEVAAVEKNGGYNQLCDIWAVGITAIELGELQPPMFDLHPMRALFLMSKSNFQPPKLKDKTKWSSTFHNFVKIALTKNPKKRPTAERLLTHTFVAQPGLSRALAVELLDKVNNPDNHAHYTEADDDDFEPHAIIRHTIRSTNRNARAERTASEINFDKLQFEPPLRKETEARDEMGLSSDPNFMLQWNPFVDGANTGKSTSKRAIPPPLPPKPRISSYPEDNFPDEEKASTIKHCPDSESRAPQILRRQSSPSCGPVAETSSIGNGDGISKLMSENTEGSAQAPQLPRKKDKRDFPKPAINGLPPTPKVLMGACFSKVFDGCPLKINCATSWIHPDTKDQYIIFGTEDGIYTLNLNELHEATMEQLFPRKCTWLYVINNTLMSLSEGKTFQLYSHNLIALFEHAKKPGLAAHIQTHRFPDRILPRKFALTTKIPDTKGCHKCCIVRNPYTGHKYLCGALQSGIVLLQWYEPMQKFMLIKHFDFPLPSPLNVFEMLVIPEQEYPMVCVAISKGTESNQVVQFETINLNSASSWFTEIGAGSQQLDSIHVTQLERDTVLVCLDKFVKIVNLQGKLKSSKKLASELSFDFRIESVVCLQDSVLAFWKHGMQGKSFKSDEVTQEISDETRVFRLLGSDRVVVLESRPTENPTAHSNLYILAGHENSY

RPS6KB1 (human) = RPS6KB1 (human) (UniProt P23443)
CDC42BPB (human) = CDC42BPB (human) (UniProt Q9Y5S2)
KIT (human) = KIT (human) (UniProt P10721)
KIT (human), sequence (P10721 whole entry, looked up): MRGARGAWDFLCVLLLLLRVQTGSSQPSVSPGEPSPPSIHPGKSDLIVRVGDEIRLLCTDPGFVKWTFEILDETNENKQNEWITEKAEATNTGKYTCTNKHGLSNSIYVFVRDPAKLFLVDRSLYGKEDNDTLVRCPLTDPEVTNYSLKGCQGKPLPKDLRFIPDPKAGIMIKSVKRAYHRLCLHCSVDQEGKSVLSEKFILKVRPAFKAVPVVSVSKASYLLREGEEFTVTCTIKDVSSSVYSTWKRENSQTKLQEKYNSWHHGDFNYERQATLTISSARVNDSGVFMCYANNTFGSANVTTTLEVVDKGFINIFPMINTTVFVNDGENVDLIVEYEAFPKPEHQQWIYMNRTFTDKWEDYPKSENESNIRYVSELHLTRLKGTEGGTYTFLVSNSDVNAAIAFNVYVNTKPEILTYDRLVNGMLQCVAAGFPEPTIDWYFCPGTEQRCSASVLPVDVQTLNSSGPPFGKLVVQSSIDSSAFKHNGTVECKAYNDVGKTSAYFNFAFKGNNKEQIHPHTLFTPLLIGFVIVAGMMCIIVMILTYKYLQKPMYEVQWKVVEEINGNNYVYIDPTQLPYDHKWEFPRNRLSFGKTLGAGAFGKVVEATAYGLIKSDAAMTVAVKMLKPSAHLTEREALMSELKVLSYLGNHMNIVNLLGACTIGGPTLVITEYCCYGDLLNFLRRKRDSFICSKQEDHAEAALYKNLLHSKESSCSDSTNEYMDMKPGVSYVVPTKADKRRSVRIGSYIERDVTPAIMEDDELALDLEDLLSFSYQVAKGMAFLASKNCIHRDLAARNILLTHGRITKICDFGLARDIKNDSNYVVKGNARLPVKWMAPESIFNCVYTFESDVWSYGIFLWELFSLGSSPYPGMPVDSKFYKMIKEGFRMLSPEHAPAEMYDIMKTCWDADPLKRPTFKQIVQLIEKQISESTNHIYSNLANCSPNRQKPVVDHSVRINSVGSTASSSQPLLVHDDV

TAOK2 (human) = TAOK2 (human) (UniProt Q9UL54)
CSNK1G3 (human) = CSNK1G3 (human) (UniProt Q9Y6M4)
CSNK1G3 (human), sequence (Q9Y6M4 whole entry, looked up): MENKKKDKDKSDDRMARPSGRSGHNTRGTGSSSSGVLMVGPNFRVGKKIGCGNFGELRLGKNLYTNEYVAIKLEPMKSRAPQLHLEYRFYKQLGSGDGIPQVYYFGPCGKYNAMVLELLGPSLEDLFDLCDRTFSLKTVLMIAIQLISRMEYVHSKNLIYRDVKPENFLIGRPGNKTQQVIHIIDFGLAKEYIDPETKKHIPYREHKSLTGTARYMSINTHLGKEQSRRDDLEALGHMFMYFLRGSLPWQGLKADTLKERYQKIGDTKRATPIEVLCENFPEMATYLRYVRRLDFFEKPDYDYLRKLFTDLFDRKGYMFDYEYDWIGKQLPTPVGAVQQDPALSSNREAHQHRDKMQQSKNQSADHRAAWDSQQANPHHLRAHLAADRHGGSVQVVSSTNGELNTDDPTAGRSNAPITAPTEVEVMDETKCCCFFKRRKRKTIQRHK

[3] = system: ABL1 (human), P00519 [Y253F]
[4] = target: TYK2 JH1 catalytic (human) (UniProt P29597)
TYK2 JH1 catalytic (human), sequence (P29597 whole entry, looked up): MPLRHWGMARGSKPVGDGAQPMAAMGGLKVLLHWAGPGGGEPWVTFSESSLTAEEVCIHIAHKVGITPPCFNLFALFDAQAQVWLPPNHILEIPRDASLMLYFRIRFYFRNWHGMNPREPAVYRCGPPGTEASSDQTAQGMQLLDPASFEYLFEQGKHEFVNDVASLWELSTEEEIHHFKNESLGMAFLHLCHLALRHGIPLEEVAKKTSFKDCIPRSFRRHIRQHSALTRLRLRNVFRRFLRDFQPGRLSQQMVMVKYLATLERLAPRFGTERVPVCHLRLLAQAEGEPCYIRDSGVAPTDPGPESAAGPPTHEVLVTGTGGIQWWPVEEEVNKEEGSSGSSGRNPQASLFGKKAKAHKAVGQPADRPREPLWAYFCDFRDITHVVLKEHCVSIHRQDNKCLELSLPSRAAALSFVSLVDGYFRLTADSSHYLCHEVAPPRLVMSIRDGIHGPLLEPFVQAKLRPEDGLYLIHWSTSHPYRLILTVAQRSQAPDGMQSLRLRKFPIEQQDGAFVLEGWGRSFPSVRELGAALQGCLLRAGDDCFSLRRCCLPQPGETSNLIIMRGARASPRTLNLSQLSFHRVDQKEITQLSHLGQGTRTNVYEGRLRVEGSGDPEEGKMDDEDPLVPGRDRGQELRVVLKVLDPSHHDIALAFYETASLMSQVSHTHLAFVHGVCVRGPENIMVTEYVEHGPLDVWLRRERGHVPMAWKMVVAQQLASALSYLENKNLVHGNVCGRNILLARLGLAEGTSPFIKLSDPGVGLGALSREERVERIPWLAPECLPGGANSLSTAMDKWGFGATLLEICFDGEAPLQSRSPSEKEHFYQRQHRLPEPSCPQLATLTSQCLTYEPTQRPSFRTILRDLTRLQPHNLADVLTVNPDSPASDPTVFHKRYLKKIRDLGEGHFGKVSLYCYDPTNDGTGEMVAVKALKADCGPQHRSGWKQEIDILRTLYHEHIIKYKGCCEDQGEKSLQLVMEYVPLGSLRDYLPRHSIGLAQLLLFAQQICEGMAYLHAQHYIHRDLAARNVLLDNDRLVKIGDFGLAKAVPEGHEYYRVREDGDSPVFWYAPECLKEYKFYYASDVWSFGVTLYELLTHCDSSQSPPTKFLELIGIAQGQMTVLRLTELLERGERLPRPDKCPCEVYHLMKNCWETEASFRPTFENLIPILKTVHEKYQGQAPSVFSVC

[5] = system: MET (human), P08581 [Y1235D]

MAPK14 (human), sequence (Q16539 whole entry, looked up): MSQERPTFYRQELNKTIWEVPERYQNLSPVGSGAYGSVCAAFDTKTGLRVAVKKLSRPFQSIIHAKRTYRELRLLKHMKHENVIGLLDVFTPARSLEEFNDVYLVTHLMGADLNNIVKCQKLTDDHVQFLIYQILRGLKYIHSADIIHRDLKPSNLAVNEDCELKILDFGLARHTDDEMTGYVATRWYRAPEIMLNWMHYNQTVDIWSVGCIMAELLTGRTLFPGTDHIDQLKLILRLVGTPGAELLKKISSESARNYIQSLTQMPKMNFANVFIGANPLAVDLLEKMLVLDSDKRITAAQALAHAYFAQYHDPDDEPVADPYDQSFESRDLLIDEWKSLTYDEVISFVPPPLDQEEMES
MKNK1 (human), sequence (Q9BUB5 whole entry, looked up): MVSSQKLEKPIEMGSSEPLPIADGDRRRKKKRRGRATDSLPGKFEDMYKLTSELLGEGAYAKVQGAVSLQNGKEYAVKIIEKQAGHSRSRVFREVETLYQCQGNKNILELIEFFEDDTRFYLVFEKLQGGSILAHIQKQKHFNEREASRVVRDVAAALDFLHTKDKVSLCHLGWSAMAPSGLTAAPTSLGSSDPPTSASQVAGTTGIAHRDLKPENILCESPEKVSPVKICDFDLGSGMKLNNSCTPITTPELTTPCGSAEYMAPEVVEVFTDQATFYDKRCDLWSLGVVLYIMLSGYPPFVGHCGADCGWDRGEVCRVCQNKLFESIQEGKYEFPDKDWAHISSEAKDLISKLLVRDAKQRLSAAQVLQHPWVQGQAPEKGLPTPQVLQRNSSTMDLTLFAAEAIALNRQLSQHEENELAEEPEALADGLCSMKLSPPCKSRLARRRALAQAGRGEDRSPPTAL

COc1cc(C(=O)N2CCC(N3CCN(C)CC3)CC2)ccc1Nc1ncc2c(n1)N(C)c1ccccc1C(=O)N2C
kinase still bound, per cent of control (MAPK14 (human)): 87% | kinase still bound, per cent of control (DCLK2 (human)): 0.45% | kinase still bound, per cent of control (CAMK2A (human)): 21% | kinase still bound, per cent of control (PIM1 (human)): 100% | kinase still bound, per cent of control (MKNK1 (human)): 50% | kinase still bound, per cent of control (RPS6KA4 KD1 (human)): 100% | kinase still bound, per cent of control (SNRK (human)): 94% | kinase still bound, per cent of control [1]: 100% | kinase still bound, per cent of control (NEK1 (human)): 83% | kinase still bound, per cent of control (STK35 (human)): 100% | kinase still bound, per cent of control (TRPM6 (human)): 100% | kinase still bound, per cent of control (BRSK1 (human)): 81% | kinase still bound, per cent of control (MAP3K6 (human)): 100% | kinase still bound, per cent of control [2]: 100% | kinase still bound, per cent of control (MAP2K1 (human)): 100% | kinase still bound, per cent of control (MAP3K10 (human)): 100% | kinase still bound, per cent of control (MAP3K2 (human)): 97% | kinase still bound, per cent of control (MYLK2 (human)): 98% | kinase still bound, per cent of control (MAP3K3 (human)): 97% | kinase still bound, per cent of control (MAPK12 (human)): 76% | kinase still bound, per cent of control (FYN (human)): 100% | kinase still bound, per cent of control (PLK4 (human)): 0% | kinase still bound, per cent of control (GRK4 (human)): 86% | kinase still bound, per cent of control (FER (human)): 51% | kinase still bound, per cent of control (CDK5 (human)): 81% | kinase still bound, per cent of control (NUAK1 (human)): 47% | kinase still bound, per cent of control (PRKCE (human)): 100% | kinase still bound, per cent of control (STK11 (human)): 96% | kinase still bound, per cent of control (DAPK2 (human)): 67% | kinase still bound, per cent of control (PIK3CD (human)): 62% | kinase still bound, per cent of control (PAK2 (human)): 65% | kinase still bound, per cent of control (MAP4K5 (human)): 100% | kinase still bound, per cent of control (RPS6KB1 (human)): 100% | kinase still bound, per cent of control (CDC42BPB (human)): 100% | kinase still bound, per cent of control (KIT (human)): 100% | kinase still bound, per cent of control (TAOK2 (human)): 65% | kinase still bound, per cent of control (CSNK1G3 (human)): 93% | kinase still bound, per cent of control [3]: 89% | kinase still bound, per cent of control [4]: 52% | kinase still bound, per cent of control [5]: 100%

COc1cc2ncnc(-n3nc(-c4ccccn4)nc3N)c2cc1OC
kinase still bound, per cent of control (MAPK14 (human)): 50% | kinase still bound, per cent of control (DCLK2 (human)): 88% | kinase still bound, per cent of control (CAMK2A (human)): 44% | kinase still bound, per cent of control (PIM1 (human)): 15% | kinase still bound, per cent of control (MKNK1 (human)): 51% | kinase still bound, per cent of control (RPS6KA4 KD1 (human)): 9.9% | kinase still bound, per cent of control (SNRK (human)): 47% | kinase still bound, per cent of control [1]: 3.2% | kinase still bound, per cent of control (NEK1 (human)): 36% | kinase still bound, per cent of control (STK35 (human)): 24% | kinase still bound, per cent of control (TRPM6 (human)): 61% | kinase still bound, per cent of control (BRSK1 (human)): 18% | kinase still bound, per cent of control (MAP3K6 (human)): 64% | kinase still bound, per cent of control [2]: 100% | kinase still bound, per cent of control (MAP2K1 (human)): 64% | kinase still bound, per cent of control (MAP3K10 (human)): 62% | kinase still bound, per cent of control (MAP3K2 (human)): 33% | kinase still bound, per cent of control (MYLK2 (human)): 61% | kinase still bound, per cent of control (MAP3K3 (human)): 48% | kinase still bound, per cent of control (MAPK12 (human)): 21% | kinase still bound, per cent of control (FYN (human)): 25% | kinase still bound, per cent of control (PLK4 (human)): 0.2% | kinase still bound, per cent of control (GRK4 (human)): 39% | kinase still bound, per cent of control (FER (human)): 93% | kinase still bound, per cent of control (CDK5 (human)): 100% | kinase still bound, per cent of control (NUAK1 (human)): 100% | kinase still bound, per cent of control (PRKCE (human)): 65% | kinase still bound, per cent of control (STK11 (human)): 100% | kinase still bound, per cent of control (DAPK2 (human)): 12% | kinase still bound, per cent of control (PIK3CD (human)): 5% | kinase still bound, per cent of control (PAK2 (human)): 37% | kinase still bound, per cent of control (MAP4K5 (human)): 45% | kinase still bound, per cent of control (RPS6KB1 (human)): 2.6% | kinase still bound, per cent of control (CDC42BPB (human)): 100% | kinase still bound, per cent of control (KIT (human)): 10% | kinase still bound, per cent of control (TAOK2 (human)): 42% | kinase still bound, per cent of control (CSNK1G3 (human)): 20% | kinase still bound, per cent of control [3]: 0.3% | kinase still bound, per cent of control [4]: 22% | kinase still bound, per cent of control [5]: 40%

N#CCNC(=O)c1ccc(-c2ccnc(Nc3ccc(N4CCOCC4)cc3)n2)cc1
kinase still bound, per cent of control (MAPK14 (human)): 100% | kinase still bound, per cent of control (DCLK2 (human)): 55% | kinase still bound, per cent of control (CAMK2A (human)): 26% | kinase still bound, per cent of control (PIM1 (human)): 100% | kinase still bound, per cent of control (MKNK1 (human)): 84% | kinase still bound, per cent of control (RPS6KA4 KD1 (human)): 100% | kinase still bound, per cent of control (SNRK (human)): 89% | kinase still bound, per cent of control (NEK1 (human)): 42% | kinase still bound, per cent of control (STK35 (human)): 57% | kinase still bound, per cent of control (TRPM6 (human)): 100% | kinase still bound, per cent of control (BRSK1 (human)): 100% | kinase still bound, per cent of control (MAP3K6 (human)): 100% | kinase still bound, per cent of control [2]: 13% | kinase still bound, per cent of control (MAP2K1 (human)): 100% | kinase still bound, per cent of control (MAP3K10 (human)): 62% | kinase still bound, per cent of control (MAP3K2 (human)): 100% | kinase still bound, per cent of control (MYLK2 (human)): 23% | kinase still bound, per cent of control (MAP3K3 (human)): 51% | kinase still bound, per cent of control (MAPK12 (human)): 100% | kinase still bound, per cent of control (FYN (human)): 78% | kinase still bound, per cent of control (PLK4 (human)): 15% | kinase still bound, per cent of control (GRK4 (human)): 10% | kinase still bound, per cent of control (FER (human)): 100% | kinase still bound, per cent of control (CDK5 (human)): 100% | kinase still bound, per cent of control (NUAK1 (human)): 45% | kinase still bound, per cent of control (PRKCE (human)): 59% | kinase still bound, per cent of control (STK11 (human)): 61% | kinase still bound, per cent of control (DAPK2 (human)): 41% | kinase still bound, per cent of control (PIK3CD (human)): 45% | kinase still bound, per cent of control (PAK2 (human)): 100% | kinase still bound, per cent of control (MAP4K5 (human)): 100% | kinase still bound, per cent of control (RPS6KB1 (human)): 100% | kinase still bound, per cent of control (CDC42BPB (human)): 42% | kinase still bound, per cent of control (KIT (human)): 100% | kinase still bound, per cent of control (TAOK2 (human)): 100% | kinase still bound, per cent of control (CSNK1G3 (human)): 100% | kinase still bound, per cent of control [3]: 61% | kinase still bound, per cent of control [4]: 0.25% | kinase still bound, per cent of control [5]: 100%
